From EPA's CvTdb concentration-time database

Legend:
[1] = system: Rat; assay: concentration in brain after dosing; conditions: 24 h; dosed: Perfluorohexane-1-sulphonic acid – potassium salt; 16 mg/kg; oral; Female; F344
[2] = system: Rat; assay: concentration in brain after dosing; conditions: 6 h; dosed: Perfluorohexane-1-sulphonic acid – potassium salt; 16 mg/kg; oral; Female; Harlan Sprague Dawley
[3] = system: Rat; assay: concentration in kidney after dosing; conditions: 6 h; dosed: Perfluorohexane-1-sulphonic acid – potassium salt; 16 mg/kg; oral; Female; Harlan Sprague Dawley
[4] = system: Rat; assay: concentration in kidney after dosing; conditions: 12 h; dosed: Perfluorohexane-1-sulphonic acid – potassium salt; 16 mg/kg; oral; Female; F344
[5] = system: Rat; assay: concentration in kidney after dosing; conditions: 96 h; dosed: Perfluorohexane-1-sulphonic acid – potassium salt; 16 mg/kg; oral; Female; Harlan Sprague Dawley
[6] = system: Rat; assay: concentration in kidney after dosing; conditions: 3 h; dosed: Perfluorohexane-1-sulphonic acid – potassium salt; 16 mg/kg; oral; Female; Harlan Sprague Dawley
[7] = system: Rat; assay: concentration in kidney after dosing; conditions: 3 h; dosed: Perfluorohexane-1-sulphonic acid – potassium salt; 16 mg/kg; oral; Female; F344
[8] = system: Rat; assay: concentration in plasma after dosing; conditions: 2 h; dosed: Pyridine; 5 mg/kg; oral; Male; F344
[9] = system: Rat; assay: concentration in plasma after dosing; conditions: 20 h; dosed: Pyridine; 25 mg/kg; oral; Male; F344
[10] = system: Rat; assay: concentration in plasma after dosing; conditions: 10 min; dosed: Pyridine; 10 mg/kg; oral; Male; F344
[11] = system: Mouse; assay: concentration in plasma after dosing; conditions: dosed: 2,4-Dichlorophenoxyacetic acid, 5.2 mg/kg, oral, Male, B6C3F1
[12] = system: Rat; assay: concentration in plasma after dosing; conditions: dosed: Methyleugenol, 37 mg/kg, oral, Male, F344/N
[13] = system: Rat; assay: concentration in plasma after dosing; conditions: dosed: Methyleugenol, 37 mg/kg, iv, Male, F344
[14] = system: Rat; assay: concentration in plasma after dosing; conditions: dosed: Methyleugenol, 37 mg/kg, iv, Female, F344
[15] = system: Rat; assay: concentration in plasma after dosing; conditions: 1 h; dosed: Methyleugenol; 37 mg/kg; oral; Male; F344/N
[16] = system: Rat; assay: concentration in plasma after dosing; conditions: dosed: 2-Hydroxy-4-methoxybenzophenone, 250 mg/kg, oral, Female, F344
[17] = system: Rat; assay: concentration in plasma after dosing; conditions: dosed: 2-Hydroxy-4-methoxybenzophenone, 100 mg/kg, oral, Male, F344
[18] = system: Mouse; assay: concentration in plasma after dosing; conditions: 10 min; dosed: 2-Hydroxy-4-methoxybenzophenone; 500 mg/kg; oral; Female; B6C3F1
[19] = system: Rat; assay: concentration in plasma after dosing; conditions: 0.25 h; dosed: 2-Hydroxy-4-methoxybenzophenone; 500 mg/kg; oral; Male; F344
[20] = system: Rat; assay: concentration in plasma after dosing; conditions: dosed: 2-Hydroxy-4-methoxybenzophenone, 250 mg/kg, oral, Female, F344; remark: listed apart in the source
[21] = system: Mouse; assay: concentration in plasma after dosing; conditions: 10 min; dosed: 2-Hydroxy-4-methoxybenzophenone; 250 mg/kg; oral; Male; B6C3F1
[22] = system: Rat; assay: concentration in plasma after dosing; conditions: dosed: 2-Hydroxy-4-methoxybenzophenone, 500 mg/kg, oral, Male, F344
[23] = system: Mouse; assay: concentration in plasma after dosing; conditions: 2 h; dosed: 2-Hydroxy-4-methoxybenzophenone; 500 mg/kg; oral; Female; B6C3F1
[24] = system: Rat; assay: concentration in brain after dosing; conditions: 6 h; dosed: alpha-Thujone; 25 mg/kg; oral; Male; Harlan Sprague Dawley
[25] = system: Rat; assay: concentration in brain after dosing; conditions: 1.5 h; dosed: alpha-Thujone; 25 mg/kg; oral; Male; Harlan Sprague Dawley
[26] = system: Rat; assay: concentration in brain after dosing; conditions: 2 min; dosed: alpha-Thujone; 25 mg/kg; oral; Female; Harlan Sprague Dawley
[27] = system: Rat; assay: concentration in brain after dosing; conditions: 3 h; dosed: alpha-Thujone; 50 mg/kg; oral; Female; Harlan Sprague Dawley
[28] = system: Rat; assay: concentration in brain after dosing; conditions: 6 h; dosed: alpha-Thujone; 50 mg/kg; oral; Female; Harlan Sprague Dawley
[29] = system: Rat; assay: concentration in brain after dosing; conditions: 6 h; dosed: alpha-Thujone; 50 mg/kg; oral; Female; Harlan Sprague Dawley; remark: listed apart in the source
[30] = system: Rat; assay: concentration in plasma after dosing; conditions: 3 h; dosed: alpha-Thujone; 50 mg/kg; oral; Female; Harlan Sprague Dawley
[31] = system: Rat; assay: concentration in plasma after dosing; conditions: 12 h; dosed: alpha-Thujone; 50 mg/kg; oral; Female; Harlan Sprague Dawley
[32] = system: Rat; assay: concentration in plasma after dosing; conditions: 6 h; dosed: alpha-Thujone; 25 mg/kg; oral; Male; Harlan Sprague Dawley
[33] = system: Rat; assay: concentration in plasma after dosing; conditions: 0.5 h; dosed: alpha-Thujone; 50 mg/kg; oral; Female; Harlan Sprague Dawley
[34] = system: Rat; assay: concentration in plasma after dosing; conditions: 0.5 h; dosed: Primidone; 130 mg/kg; oral; Female; F344
[35] = system: Rat; assay: concentration in plasma after dosing; conditions: 6 h; dosed: Primidone; 80 mg/kg; oral; Male; F344
[36] = system: Rat; assay: concentration in plasma after dosing; conditions: 0.25 h; dosed: Primidone; 30 mg/kg; oral; Female; F344
[37] = system: Rat; assay: concentration in plasma after dosing; conditions: 6 h; dosed: Primidone; 130 mg/kg; oral; Female; F344

O=S(=O)([O-])C(F)(F)C(F)(F)C(F)(F)C(F)(F)C(F)(F)C(F)(F)F.[K+] [Perfluorohexane-1-sulphonic acid – potassium salt]
Conditions | concentration in brain [ng/g] | concentration in kidney [ng/g]
[1] | 1390 | –
[2] | 1100 | –
[3] | – | 36900
[4] | – | 35900
[5] | – | 5570
[6] | – | 42800
[7] | – | 18100

c1ccncc1 [Pyridine]
Conditions | concentration in plasma [ng/mL]
[8] | 2710
[9] | 143
[10] | 5480

O=C(O)COc1ccc(Cl)cc1Cl [2,4-Dichlorophenoxyacetic acid]
[11]
Conditions | concentration in plasma [ng/mL]
0.25 h | 12900
0.5 h | 21100
2 h | 18600
3 h | 8140
4 h | 8940
5 min | 18900
6 h | 2910
10 h | 212

C=CCc1ccc(OC)c(OC)c1 [Methyleugenol]
Conditions | concentration in plasma [ng/mL]
[12], 2 h | 41.7
[12], 5 min | 191
[13], 2 min | 59100
[13], 6 h | 114
[14], 0.5 h | 1330
[14], 0.75 h | 535

Conditions | concentration in plasma [ng/mL]
[15] | 63.4

O=C(c1ccccc1)c1ccc(O)cc1O [2,4-Dihydroxybenzophenone]
Conditions | concentration in plasma [ng/mL]
[16], 3 h | 148
[16], 10 min | 119
[17], 0.25 h | 61.2
[17], 4 h | 48.4
[20], 0.25 h | 473
[20], 4 h | 68
[22], 10 h | 203
[22], 10 min | 55.1

Conditions | concentration in plasma [ng/mL]
[18] | 4250
[19] | 103
[21] | 415
[23] | 135

CC(C)[C@]12CC(=O)[C@H](C)[C@H]1C2 [alpha-Thujone]
Conditions | concentration in brain [ng/g] | concentration in plasma [ng/mL]
[24] | 28.2 | –
[25] | 234 | –
[26] | 36.5 | –
[27] | 615 | –
[28] | 200 | –
[29] | 165 | –
[30] | – | 201
[31] | – | 23.1
[32] | – | 83.5
[33] | – | 475

CCC1(c2ccccc2)C(=O)NCNC1=O [Primidone]
Conditions | concentration in plasma [ng/mL]
[34] | 18800
[35] | 13000
[36] | 15100
[37] | 58400
